According to patent US20070041934A1, “Dendrimer based compositions and methods of using the same” (priority 2005, published 2007):

Legend:
KB cells = test: Cell growth inhibition (XTT assay / total cell protein); assay type: cell-based, human
Protocol: Cell culture and treatment. KB cells were maintained in folate-free medium containing 10% serum (See, e.g., Quintana et al, Pharm. Res. 19, 1310 (2002)) to provide extracellular FA similar to that found in human serum. Cells were plated in 12-well plates for uptake studies, in 24-well plates for cell growth analysis, and in 96-well plates for XTT assay. Cells were rinsed with FA-free medium containing dialyzed serum and incubated at 37° C. with dendrimer-drug conjugates for the indicated time periods and concentrations. KB cells were also maintained in RPMI medium containing 2 μM FA to obtain cells which express low FAR.
Evaluation of dendrimer cytotoxicity. Cell growth was determined by assay of the total protein in lysates of treated cells using a bicinchoninic acid reagent (PIERCE, and by XTT assay, using a kit from Roche.
Because the binding of the conjugate to KB cells reaches maximal uptake within 1 h (Quintana et al, 2002. Pharmaceutical Research 19: 1310-1316.), the effect of the G5-FI-FA-MTX on cell growth was initially tested by pre-incubation of cells with the conjugate for 1 h, followed by incubation in a drug-free medium for 5 d. […] When the cells were pre-incubated with dendrimers for 4 h, there was a modest decrease of about 10% in cell growth as determined by XTT assay. The cytotoxicity measurements were therefore done by incubation with the dendrimer for a minimum of 24 h, a pre-incubation time period shown to induce significant cytotoxicity.
Time course and dose dependent inhibition of cell growth. Previous studies have shown that MTX-induced cytotoxicity is detectable in vitro only if the medium is completely deprived of FA (See, e.g., Sobrero & Bertino, Int. J. Cell Cloning 4, 51 (1986)). The effect of the trifunctional dendrimers on cell growth was tested in cells incubated in a FA-deficient medium. Cells were treated with 300 nM conjugates (equivalent of 1500 nM MTX) or 1500 nM free MTX for 1-4 days, and cell proliferation was determined by estimation of cellular protein content. Cells were treated for 2 days with different concentrations of the conjugates or free MTX (the conjugate concentration is given as MTX equivalents, with 5 MTX per dendrimer molecule). KB cells which express high and low FAR were incubated with 30 nM of the dendrimers for 1 hr at 37° C., rinsed, and the fluorescence of cells was determined by flow cytometric analysis (See. e.g., FIG. 21, left panel). Pre-incubation with 50 μM free FA for 30 min totally prevents cellular binding and uptake of the polymer conjugates (See. e.g., FIG. 21, left panel).
The inhibition of cell growth induced by the conjugates was also tested by XTT assay which is based on the conversion of XTT to formazan by the active mitochondria of live cells (See, e.g., Roehm et al, J Immunol Methods 142, 257 (1991)).
As growth inhibition induced by free MTX was higher than with the equimolar concentrations of MTX in the G5-FITC-FA-MTX below 1 μM (See, e.g., FIG. 21), it was tested whether the FA moiety in the G5-FITC-FA-MTX may be rescuing the cells from MTX-induced cytotoxicity. As the G5-FITC-FA-MTX preparation contained equimolar concentrations of MTX and FA, the effect of similar concentrations of free MTX and free FA on the inhibition of cell growth was determined. […] The cells were rinsed to remove the drugs and incubated with fresh medium for an additional 6 d, and total cell protein was determined. […]

s.c. human KB xenografts = test: Targeted drug delivery to tumor, tumor growth and survival; assay type: in vivo, SCID mice; conditions: for effect on tumor growth: first trial
Protocol: Delivery of targeted nanoparticle therapeutic.
Statistical methods. Means, SD, and SE of the data were calculated. Differences between the experimental groups and the control groups were tested using Student's-Newman-Keuls' test and Ps<0.05 were considered significant.
Targeted drug delivery to tumor cells through the folate receptor. The efficacy of different doses of conjugates was tested on SCID CB-17 mice bearing s.c. human KB xenografts and was compared with equivalent and higher doses of free methotrexate. Mice were maintained on the folic acid-deficient diet for 3 weeks before injection of the KB tumor cells to achieve circulating levels of folic acid that approach those in human serum and to prevent down-regulation of folate receptors on tumor xenografts (See, Mathias et al., J Nucl Med 29, 1579 (1998)). Six groups of SCID mice with five mice in each group were injected s.c. on one flank with 5×10^6 KB cells in 0.2 mL PBS suspension. The highest total dose of G5-FI-FA-MTX therapeutic used equals 55.0 mg/kg and is equivalent to a 5.0 mg/kg total cumulative dose of free methotrexate (FIG. 29). The therapeutic dose of the conjugate was compared with three cumulative doses of free methotrexate equivalent to 33.3, 21.7, and 5.0 mg/kg accumulated in 10 to 15 injections based on mouse survival. Saline and the conjugate without methotrexate (G5-FI-FA) were used as controls.

[1] = mouse, in vivo
Protocol: (§1) Delivery of targeted nanoparticle therapeutic. Twice weekly, SCID mice with s.c. KB xenografts, starting on day 4 after tumor implantation, received via the tail vein an injection of either targeted or nontargeted conjugate containing methotrexate, a conjugate without methotrexate, free methotrexate, or saline as a control. The compounds were delivered in a 0.2 mL volume of saline per 20 g of mouse. The single dose of methotrexate delivered each time equaled 0.33 mg/kg. The higher doses of 1.67 and 3.33 mg/kg free methotrexate were also tested. The conjugates were delivered at equimolar concentration of methotrexate calculated based on the number of methotrexate molecules present in a nanoparticle. The conjugate without methotrexate was delivered at equimolar concentration of dendrimer. In the initial trial, six groups of mice with five mice in each group received up to 15 injections. In the follow-up trial, mice received up to 28 injections dependent on their survival. The body weights of the mice were monitored throughout the experiment as an indication of adverse effects of the drug. Histopathology of multiple organs was done at the termination of each trial and each time mouse had to be euthanized due to toxic effects or tumor burden. Tissues from lung, heart, liver, pancreas, spleen, kidney, and tumor were analyzed.
Toxicity of dendrimer conjugates. […]

[2] = Toxicity of dendrimer conjugates and free methotrexate in mice; conditions: cumulative doses 33.3 and 21.7 mg/kg
Protocol: as §1
Toxicity of dendrimer conjugates. […]

Structure (SMILES) | growth inhibition by XTT assay (KB cells; 1, 2 or 3 days) | inhibition of cell growth (KB cells; FA-deficient medium, time course and dose dependence (FIGS. 21 and 22)) | growth inhibition compared with equimolar MTX in G5-FITC-FA-MTX (KB cells; below 1 μM) | effect on tumor growth (s.c. human KB xenografts; cumulative dose equivalent to 5.0 mg/kg methotrexate (or equimolar dendrimer)) | effect on tumor growth (s.c. human KB xenografts; cumulative doses 33.3 and 21.7 mg/kg) | day of trial by which all mice died (s.c. human KB xenografts; second 99-day trial) [days] | survivors at the termination of the trial (s.c. human KB xenografts; second 99-day trial) | histopathology of the liver [1] | day of trial by which dose became lethal [2] [days] | reversal of MTX-induced growth-arrest by free FA (KB cells; 150 nM FA with 150 nM MTX, 24 h, then 6 d fresh medium, total cell protein) | increase of cell growth above that of the control cells (KB cells; 50 μM free FA with conjugate or free MTX 24 h, then 5 days, XTT) [%]
CN(Cc1cnc2nc(N)nc(N)c2n1)c1ccc(C(=O)N[C@@H](CCC(=O)O)C(=O)O)cc1 [MTX, methotrexate] | time-dependent cytotoxicity | inhibited cell growth in a time- and dose-dependent fashion | higher | no effect on tumor growth | affecting tumor growth | ≤ 66 | no mice surviving | advanced liver lesions, collections of inflammatory cells, and periportal inflammation | 32 to 36 | – | –
Nc1nc2ncc(CNc3ccc(C(=O)N[C@@H](CCC(=O)O)C(=O)O)cc3)nc2c(=O)[nH]1 [FA, folic acid] | – | – | – | – | – | – | – | – | – | almost completely reversed the growth-arrest | 20
